Measurements from patent US6420330B1, “Use of quaternary carboxylic acid alkanolamine ester salts as microbicide agents” (Cognis Deutschland GmbH, priority 1997, dated 2002).

How the values were obtained:
Test in all cases: DGHM suspension test, microbicidal activity
Format in all cases: cell-based
[1] = tested on: Candida albicans ATCC 10231
How it was run: (§1)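 DGHM suspension test at room temperature: 0.1 ml germ suspension into 10 ml test solution (50–800 mg/l in 17° dH water, optionally isopropanol). After 5, 15, 30 and 60 minutes contact, samples inactivated (Tween/lecithin/histidine), plated on CaSo-agar, incubated 24–72 hours at 37° C. Log reduction versus unchallenged water control.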

[2] = tested on: Staphylococcus aureus ATCC 6538
How it was run: as §1

[3] = tested on: Pseudomonas aeruginosa ATCC 15442
How it was run: as §1

[4] = CU 50 mg/l, contact time 5 mins.
[5] = CU 50 mg/l, contact time 15 mins.
[6] = CU 50 mg/l, contact time 30 mins.
[7] = CU 50 mg/l, contact time 60 mins.
[8] = CU 100 mg/l, contact time 5 mins.
[9] = CU 100 mg/l, contact time 15 mins.
[10] = CU 100 mg/l, contact time 30 mins.
[11] = CU 100 mg/l, contact time 60 mins.
[12] = CU 200 mg/l, contact time 5 mins.
[13] = CU 200 mg/l, contact time 15 mins.
[14] = CU 200 mg/l, contact time 30 mins.
[15] = CU 200 mg/l, contact time 60 mins.
[16] = CU 400 mg/l, contact time 5 mins.
[17] = CU 400 mg/l, contact time 15 mins.
[18] = CU 400 mg/l, contact time 30 mins.
[19] = CU 400 mg/l, contact time 60 mins.
[20] = CU 800 mg/l, contact time 5 mins.
[21] = CU 800 mg/l, contact time 15 mins.
[22] = CU 800 mg/l, contact time 30 mins.
[23] = CU 800 mg/l, contact time 60 mins.

CCCCCCCCC(=O)OCC[N+](C)(C)CCOC(=O)CCCCCCCC.COS(=O)(=O)[O-] [Example 3, dimethyl diethanolammonium dipelargonic acid ester methosulfate]
logarithmic reduction factor [1, 4]: 2.86
logarithmic reduction factor [1, 5]: >4.63
logarithmic reduction factor [1, 6]: >4.66
logarithmic reduction factor [1, 7]: >4.67
logarithmic reduction factor [1, 8]: >4.63
logarithmic reduction factor [1, 9]: >4.63
logarithmic reduction factor [1, 10]: >4.66
logarithmic reduction factor [1, 11]: >4.67
logarithmic reduction factor [1, 12]: >4.63
logarithmic reduction factor [1, 13]: >4.63
logarithmic reduction factor [1, 14]: >4.66
logarithmic reduction factor [1, 15]: >4.67
logarithmic reduction factor [1, 16]: >4.63
logarithmic reduction factor [1, 17]: >4.63
logarithmic reduction factor [1, 18]: >4.66
logarithmic reduction factor [1, 19]: >4.67
logarithmic reduction factor [1, 20]: >4.63
logarithmic reduction factor [1, 21]: >4.63
logarithmic reduction factor [1, 22]: >4.66
logarithmic reduction factor [1, 23]: >4.67
logarithmic reduction factor [2, 4]: <1.31
logarithmic reduction factor [2, 5]: 2.31
logarithmic reduction factor [2, 6]: 3.01
logarithmic reduction factor [2, 7]: 4.85
logarithmic reduction factor [2, 8]: <1.31
logarithmic reduction factor [2, 9]: 3.67
logarithmic reduction factor [2, 10]: >5.19
logarithmic reduction factor [2, 11]: >5.55
logarithmic reduction factor [2, 12]: 2.05
logarithmic reduction factor [2, 13]: >5.74
logarithmic reduction factor [2, 14]: >5.19
logarithmic reduction factor [2, 15]: >5.55
logarithmic reduction factor [2, 16]: 3.25
logarithmic reduction factor [2, 17]: >5.74
logarithmic reduction factor [2, 18]: >5.19
logarithmic reduction factor [2, 19]: >5.55
logarithmic reduction factor [2, 20]: 3.78
logarithmic reduction factor [2, 21]: >5.74
logarithmic reduction factor [2, 22]: >5.19
logarithmic reduction factor [2, 23]: >5.55
logarithmic reduction factor [3, 4]: <1.59
logarithmic reduction factor [3, 5]: 2.99
logarithmic reduction factor [3, 6]: 3.58
logarithmic reduction factor [3, 7]: 3.77
logarithmic reduction factor [3, 8]: 4.36
logarithmic reduction factor [3, 9]: >5.58
logarithmic reduction factor [3, 10]: >5.67
logarithmic reduction factor [3, 11]: >5.53
logarithmic reduction factor [3, 12]: >5.59
logarithmic reduction factor [3, 13]: >5.58
logarithmic reduction factor [3, 14]: >5.67
logarithmic reduction factor [3, 15]: >5.53
logarithmic reduction factor [3, 16]: >5.59
logarithmic reduction factor [3, 17]: >5.58
logarithmic reduction factor [3, 18]: >5.67
logarithmic reduction factor [3, 19]: >5.53
logarithmic reduction factor [3, 20]: >5.59
logarithmic reduction factor [3, 21]: >5.58
logarithmic reduction factor [3, 22]: >5.67
logarithmic reduction factor [3, 23]: >5.53
